Among the test systems are BT-549; CCRF-CEM; DU-145; HCC 2998; HCT-116; HT-29; IGROV-1; MDA-MB-435; MDA-N; MOLT-4; NCI-H460; PC-3; RPMI-8226; SF-539; SK-MEL-2; SN12C; SNB-19; SNB-75; UACC-257; 786-0.
Holding throughout (assay): NCI anticancer screen, dose series, 48 h

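Compound exposure: 48 hours, 5 concentrations, 96-well plates. GI50 = concentration required for 50% inhibition of growth.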 The source made the active and inactive calls. Rule as the data show it: active = GI50 up to about 1.1 µM and inactive = higher.

On to `CCC(C)NC1=NCC(C)S1` (stereo not drawn), for which the GI50 with BT-549, with CCRF-CEM, with DU-145, with HCC 2998, in the assay with HCT-116 and in the assay on HT-29 was > 100 µM (inactive) throughout. Moreover, the GI50 in the assay on IGROV-1, in the assay on MDA-MB-435, in the assay on MDA-N, with MOLT-4, with NCI-H460 and in the assay with PC-3 was > 100 µM (inactive) throughout. Also, the GI50 in the assay with RPMI-8226, in the assay on SF-539, with SK-MEL-2, in the assay with SN12C, in the assay on SNB-19 and with SNB-75 was > 100 µM (inactive) throughout. In the assay with UACC-257, the GI50 was > 100 µM (inactive).
For the compound `COC(=O)CCc1cc(OC)c(O)c(C(Cc2ccc(OC)c(OC)c2)C(=O)OC)c1` (stereo not drawn), the GI50 in the assay on 786-0, with BT-549, in the assay on CCRF-CEM, with DU-145, with HCC 2998 and in the assay with HCT-116 was > 100 µM (inactive) throughout. The GI50 with HT-29, with IGROV-1, with MDA-MB-435, in the assay with MDA-N, in the assay with MOLT-4 and in the assay on NCI-H460 was > 100 µM (inactive) throughout. For the same compound, the GI50 in the assay with PC-3, with RPMI-8226, in the assay on SF-539, in the assay on SK-MEL-2, with SN12C and in the assay with SNB-19 was > 100 µM (inactive) in each case. Besides, the GI50 in the assay on SNB-75 and in the assay on UACC-257 was > 100 µM (inactive) throughout.
On to `CC1=NC(C)(C)[N+]([O-])=C1`, for which the GI50 in the assay on 786-0, in the assay with BT-549, in the assay on CCRF-CEM, in the assay on DU-145, in the assay with HCC 2998 and in the assay on HCT-116 was > 10 µM (inactive) each time. Moreover, the GI50 in the assay with HT-29, in the assay with IGROV-1, with MDA-MB-435, in the assay on MDA-N, in the assay with MOLT-4 and with NCI-H460 was > 10 µM (inactive) each time. Moreover, the GI50 in the assay on PC-3, with RPMI-8226, in the assay with SF-539, in the assay on SK-MEL-2, in the assay on SN12C and in the assay with SNB-19 was > 10 µM (inactive) each time. For the same compound, the results for the GI50 in the assay on SNB-75 and with UACC-257 were 0.0718 µM (active) and > 10 µM (inactive), respectively.
For the compound `C=C1CC(C)(c2ccc(Nc3nc4ccccc4c4occc34)cc2)OC1=O` (stereo not drawn), the GI50 in the assay with 786-0 was 2.16 µM (inactive); in the assay with BT-549, 2.37 µM (inactive); in the assay on CCRF-CEM, 1.12 µM (active); in the assay on DU-145 it was 8.13 µM (inactive); with HCC 2998, 2.32 µM (inactive); in the assay on HCT-116, 1.34 µM (inactive). The GI50 with HT-29 was 3.61 µM (inactive); with MDA-MB-435 it was 1.91 µM (inactive); in the assay on MDA-N, 3.29 µM (inactive); in the assay on MOLT-4, 1.82 µM (inactive); in the assay with NCI-H460, 14.7 µM (inactive); with PC-3, 4.36 µM (inactive). Moreover, the GI50 is 1.69 µM (inactive) in the assay with RPMI-8226; 2 µM (inactive) in the assay on SF-539; 1.93 µM (inactive) in the assay with SN12C; 7.45 µM (inactive) in the assay with SNB-19; 1.92 µM (inactive) in the assay with SNB-75; 0.0186 µM (active) in the assay on UACC-257.
Turning to `O=C1Oc2ccccc2C(=O)/C1=C1/C=C(c2ccccc2)SS1`, the GI50 was > 100 µM (inactive) with 786-0; > 100 µM (inactive) in the assay with BT-549; 22.6 µM (inactive) with CCRF-CEM; 85.5 µM (inactive) in the assay with DU-145; 96.8 µM (inactive) in the assay on HCC 2998; 56.6 µM (inactive) with HCT-116. Besides, the GI50 in the assay on HT-29 is 40.6 µM (inactive); with IGROV-1, 86.5 µM (inactive); in the assay with MDA-MB-435 it was 48.9 µM (inactive); with MDA-N, 34.8 µM (inactive); with MOLT-4, 30.4 µM (inactive); with NCI-H460 it was > 100 µM (inactive). Also, the GI50 with PC-3 was > 100 µM (inactive); with RPMI-8226 it was > 100 µM (inactive); with SF-539 it was > 100 µM (inactive); with SK-MEL-2, > 100 µM (inactive); in the assay with SN12C, 69 µM (inactive); in the assay with SNB-19 it was 81.8 µM (inactive). In addition, the GI50 in the assay on SNB-75 and in the assay with UACC-257 was > 100 µM (inactive) each time.
Take `C=CCCCC1CCCNC1=S` (stereo not drawn): the GI50 with 786-0, in the assay with BT-549, in the assay on DU-145, in the assay with HCC 2998, in the assay with HCT-116 and in the assay with HT-29 was > 100 µM (inactive) each time. In addition, the GI50 in the assay with IGROV-1, in the assay on MDA-MB-435, in the assay with MDA-N, with MOLT-4, with NCI-H460 and in the assay with PC-3 was > 100 µM (inactive) throughout. Moreover, the GI50 in the assay on RPMI-8226, in the assay with SF-539, with SK-MEL-2, in the assay on SN12C, in the assay on SNB-19 and in the assay on SNB-75 was > 100 µM (inactive) each time. Further, the GI50 in the assay with UACC-257 was > 100 µM (inactive).
On to `S=C1N(c2ccc(Cl)cc2)C2=C(/N=N/c3ccccc3)C(=Nc3ccccc3S2)N1c1ccccn1`, for which the GI50 in the assay with 786-0 is 14.9 µM (inactive); with BT-549 it was 11.1 µM (inactive); with CCRF-CEM, 5.36 µM (inactive); with DU-145, 14.7 µM (inactive); in the assay with HCC 2998, 17.4 µM (inactive); with HCT-116, 14.1 µM (inactive). The GI50 in the assay on HT-29 is 17.1 µM (inactive); in the assay on IGROV-1 it was 0.164 µM (active); in the assay on MDA-MB-435, 13.5 µM (inactive); with MDA-N it was 15.4 µM (inactive); in the assay with MOLT-4 it was 13.9 µM (inactive); with NCI-H460 it was 11 µM (inactive). Besides, the GI50 with PC-3 was 13.2 µM (inactive); with RPMI-8226 it was 17.7 µM (inactive); in the assay on SF-539, 16.6 µM (inactive); in the assay with SN12C, 12.5 µM (inactive); in the assay on SNB-19, 13.9 µM (inactive); with SNB-75, 19 µM (inactive). Also, the GI50 in the assay on UACC-257 is 15.8 µM (inactive).
With `N#CCCN(CCNc1ccccc1)C(=O)Nc1ccc(NC(=O)N(CCC#N)CCNc2ccccc2)cc1`, the GI50 in the assay with 786-0 is > 68.9 µM (inactive); in the assay with BT-549, > 38.5 µM (inactive); with DU-145, > 92.9 µM (inactive); in the assay on HCC 2998, > 100 µM (inactive); with HCT-116, > 100 µM (inactive); in the assay with HT-29 it was > 100 µM (inactive). For the same compound, the GI50 is > 100 µM (inactive) in the assay on MDA-MB-435; > 100 µM (inactive) in the assay with MDA-N; > 100 µM (inactive) in the assay on MOLT-4; > 67.6 µM (inactive) with NCI-H460; > 93.1 µM (inactive) in the assay on PC-3; > 100 µM (inactive) in the assay on RPMI-8226. Moreover, the GI50 is > 100 µM (inactive) in the assay with SF-539; > 100 µM (inactive) in the assay on SK-MEL-2; > 100 µM (inactive) with SN12C; > 100 µM (inactive) with SNB-19; 26.2 µM (inactive) in the assay on SNB-75; > 100 µM (inactive) with UACC-257.
On to `CCC1CCN/C(=N/S(=O)(=O)c2cc(C)c(Cl)cc2S)N1` (stereo not drawn), for which the GI50 was 33.5 µM (inactive) in the assay with 786-0; 17.7 µM (inactive) in the assay on BT-549; 25.9 µM (inactive) in the assay with CCRF-CEM; 43.7 µM (inactive) in the assay with DU-145; 43.2 µM (inactive) in the assay with HCC 2998; 24.7 µM (inactive) in the assay on HCT-116. Besides, the GI50 was 30.1 µM (inactive) with HT-29; 24.2 µM (inactive) in the assay with IGROV-1; 22.9 µM (inactive) in the assay on MDA-MB-435; 33 µM (inactive) in the assay on MDA-N; 21.7 µM (inactive) with MOLT-4; 8.2 µM (inactive) with NCI-H460. Moreover, the GI50 in the assay with PC-3 is 50.2 µM (inactive); with RPMI-8226, 24.2 µM (inactive); in the assay on SF-539 it was 29.4 µM (inactive); in the assay with SK-MEL-2, 26.4 µM (inactive); in the assay on SN12C, 43.3 µM (inactive); in the assay with SNB-19, 30.2 µM (inactive). Also, the GI50 was 40 µM (inactive) in the assay on SNB-75 and 42.9 µM (inactive) in the assay with UACC-257.
On to `COc1cccc(-c2cc(O)c3cccnc3n2)c1`, for which the GI50 is 0.165 µM (active) in the assay on 786-0; > 100 µM (inactive) in the assay with BT-549; 0.0603 µM (active) in the assay on CCRF-CEM; 0.556 µM (active) in the assay on DU-145; 0.251 µM (active) with HCC 2998; 0.0546 µM (active) in the assay with HCT-116. For the same compound, the GI50 was 0.0543 µM (active) in the assay with HT-29; 0.432 µM (active) with IGROV-1; 0.0164 µM (active) with MDA-MB-435; 0.0159 µM (active) with MDA-N; 0.221 µM (active) with MOLT-4; 0.1 µM (active) in the assay with NCI-H460. In addition, the GI50 in the assay on PC-3 is 0.158 µM (active); in the assay with RPMI-8226 it was 0.195 µM (active); in the assay on SF-539, 0.102 µM (active); with SK-MEL-2 it was > 100 µM (inactive); in the assay with SN12C, 0.406 µM (active); in the assay with SNB-19 it was 0.213 µM (active). The GI50 is 0.0857 µM (active) in the assay on SNB-75 and > 100 µM (inactive) with UACC-257.

The values above are taken from ChEMBL document CHEMBL1201862, “PubChem BioAssay data set” (2004).
